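Compound exposure: 48 hours, 5 concentrations, 96-well plates. At the GI50, growth is halved. The concentration for full growth arrest is given as TGI.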
Assays:
Experiment in all cases: inhibition of tumour cell growth, NCI panel, 48 h
UACC-62 melanoma = test system: UACC-62 melanoma
U251 CNS = test system: U251 CNS
HCT-15 colon = test system: HCT-15 colon
M14 melanoma = test system: M14 melanoma
786-0 renal = test system: 786-0 renal
HCC-2998 colon = test system: HCC-2998 colon
MDA-MB-468 breast = test system: MDA-MB-468 breast
BT-549 breast = test system: BT-549 breast
SR leukemia = test system: SR leukemia
SF-295 CNS = test system: SF-295 CNS
MALME-3M melanoma = test system: MALME-3M melanoma
SK-MEL-28 melanoma = test system: SK-MEL-28 melanoma
HOP-92 NSCLC = test system: HOP-92 NSCLC
MCF7 breast = test system: MCF7 breast
SK-MEL-2 melanoma = test system: SK-MEL-2 melanoma
IGROV1 ovarian = test system: IGROV1 ovarian
NCI-H522 lung = test system: NCI-H522 lung
UO-31 renal = test system: UO-31 renal
OVCAR-8 ovarian = test system: OVCAR-8 ovarian
HS 578T breast = test system: HS 578T breast
T-47D breast = test system: T-47D breast
SF-268 CNS = test system: SF-268 CNS
NCI-H460 lung = test system: NCI-H460 lung
LOX IMVI melanoma = test system: LOX IMVI melanoma
NCI-H226 lung = test system: NCI-H226 lung
SW-620 colon = test system: SW-620 colon
EKVX NSCLC = test system: EKVX NSCLC
SF-539 CNS = test system: SF-539 CNS
OVCAR-5 ovarian = test system: OVCAR-5 ovarian
HCT-116 colon = test system: HCT-116 colon
TK-10 renal = test system: TK-10 renal
CCRF-CEM leukemia = test system: CCRF-CEM leukemia
K-562 leukemia = test system: K-562 leukemia
MDA-MB-231 breast = test system: MDA-MB-231 breast
SN12C renal = test system: SN12C renal
HL-60(TB) leukemia = test system: HL-60(TB) leukemia
RPMI-8226 leukemia = test system: RPMI-8226 leukemia
KM12 colon = test system: KM12 colon
NCI-H23 lung = test system: NCI-H23 lung
MDA-MB-435 = test system: MDA-MB-435
DU-145 prostate = test system: DU-145 prostate
A549 NSCLC = test system: A549 NSCLC
HT29 colon = test system: HT29 colon
SK-OV-3 ovarian = test system: SK-OV-3 ovarian
MOLT-4 leukemia = test system: MOLT-4 leukemia
PC-3 prostate = test system: PC-3 prostate
SK-MEL-5 melanoma = test system: SK-MEL-5 melanoma
UACC-257 melanoma = test system: UACC-257 melanoma
SNB-75 CNS = test system: SNB-75 CNS
SNB-19 CNS = test system: SNB-19 CNS
CAKI-1 renal = test system: CAKI-1 renal
OVCAR-4 ovarian = test system: OVCAR-4 ovarian
COLO 205 colon = test system: COLO 205 colon
ACHN renal = test system: ACHN renal
HOP-62 NSCLC = test system: HOP-62 NSCLC
OVCAR-3 ovarian = test system: OVCAR-3 ovarian
A498 renal = test system: A498 renal
RXF 393 renal = test system: RXF 393 renal

O=C(O)c1ccc(-c2ccc(/C=N/NC(=O)c3[nH]c4ccc(Br)cc4c3-c3ccccc3)s2)cc1
GI50 (UACC-62 melanoma): 11.7 µM
TGI (UACC-62 melanoma): 24.6 µM
GI50 (U251 CNS): 5.98 µM
TGI (U251 CNS): 22 µM
GI50 (HCT-15 colon): 5.27 µM
TGI (HCT-15 colon): 20 µM
GI50 (M14 melanoma): 6.32 µM
TGI (M14 melanoma): 30.3 µM
GI50 (786-0 renal): 3.13 µM
TGI (786-0 renal): 11 µM
GI50 (HCC-2998 colon): 11.8 µM
TGI (HCC-2998 colon): 27.3 µM
GI50 (MDA-MB-468 breast): 19.1 µM
TGI (MDA-MB-468 breast): 59.7 µM
GI50 (BT-549 breast): 1.95 µM
TGI (BT-549 breast): 5.83 µM
GI50 (SR leukemia): 13.7 µM
TGI (SR leukemia): 58 µM
GI50 (SF-295 CNS): 7.34 µM
TGI (SF-295 CNS): 26.2 µM
GI50 (MALME-3M melanoma): 16.3 µM
TGI (MALME-3M melanoma): 38.2 µM
GI50 (SK-MEL-28 melanoma): 7.17 µM
TGI (SK-MEL-28 melanoma): 21.6 µM
GI50 (HOP-92 NSCLC): 4.41 µM
TGI (HOP-92 NSCLC): 22 µM
GI50 (MCF7 breast): 18.1 µM
TGI (MCF7 breast): 65.1 µM
GI50 (SK-MEL-2 melanoma): 15.6 µM
TGI (SK-MEL-2 melanoma): 35.7 µM
GI50 (IGROV1 ovarian): 7.85 µM
TGI (IGROV1 ovarian): 23.1 µM
GI50 (NCI-H522 lung): 15.9 µM
TGI (NCI-H522 lung): 33.4 µM
GI50 (UO-31 renal): 10.4 µM
TGI (UO-31 renal): 33.9 µM
GI50 (OVCAR-8 ovarian): 15.9 µM
TGI (OVCAR-8 ovarian): 66.9 µM
GI50 (HS 578T breast): 6.67 µM
TGI (HS 578T breast): 38.9 µM
GI50 (T-47D breast): 13.9 µM
TGI (T-47D breast): 59.5 µM
GI50 (SF-268 CNS): 13.5 µM
TGI (SF-268 CNS): 46 µM
GI50 (NCI-H460 lung): 12.3 µM
TGI (NCI-H460 lung): 31.5 µM
GI50 (LOX IMVI melanoma): 25.7 µM
TGI (LOX IMVI melanoma): > 100 µM
GI50 (NCI-H226 lung): 21 µM
TGI (NCI-H226 lung): 75.5 µM
GI50 (SW-620 colon): 13.8 µM
TGI (SW-620 colon): 34.1 µM
GI50 (EKVX NSCLC): 14.4 µM
TGI (EKVX NSCLC): 39.1 µM
GI50 (SF-539 CNS): 6.79 µM
TGI (SF-539 CNS): 22.2 µM
GI50 (OVCAR-5 ovarian): 17.1 µM
TGI (OVCAR-5 ovarian): 31.5 µM
GI50 (HCT-116 colon): 3.7 µM
TGI (HCT-116 colon): 12.6 µM
GI50 (TK-10 renal): 26.8 µM
TGI (TK-10 renal): > 100 µM
GI50 (CCRF-CEM leukemia): 4.44 µM
TGI (CCRF-CEM leukemia): 26.9 µM
GI50 (K-562 leukemia): 6.15 µM
TGI (K-562 leukemia): 37.1 µM
GI50 (MDA-MB-231 breast): 20.6 µM
TGI (MDA-MB-231 breast): 47.2 µM
GI50 (SN12C renal): 9.73 µM
TGI (SN12C renal): 29.7 µM
GI50 (HL-60(TB) leukemia): 4.31 µM
TGI (HL-60(TB) leukemia): 25 µM
GI50 (RPMI-8226 leukemia): 6.05 µM
TGI (RPMI-8226 leukemia): 51.3 µM
GI50 (KM12 colon): 15.3 µM
TGI (KM12 colon): 39.7 µM
GI50 (NCI-H23 lung): 21.7 µM
TGI (NCI-H23 lung): 54.5 µM
GI50 (MDA-MB-435): 6.81 µM
TGI (MDA-MB-435): 28.2 µM
GI50 (DU-145 prostate): 24.9 µM
TGI (DU-145 prostate): > 100 µM
GI50 (A549 NSCLC): 13.5 µM
TGI (A549 NSCLC): 44.6 µM
GI50 (HT29 colon): 12.7 µM
TGI (HT29 colon): 30.4 µM
GI50 (SK-OV-3 ovarian): 20 µM
TGI (SK-OV-3 ovarian): 41.2 µM
GI50 (MOLT-4 leukemia): 6.42 µM
TGI (MOLT-4 leukemia): 34.2 µM
GI50 (PC-3 prostate): 4.79 µM
TGI (PC-3 prostate): 37 µM
GI50 (SK-MEL-5 melanoma): 12 µM
TGI (SK-MEL-5 melanoma): 27 µM
GI50 (UACC-257 melanoma): 18.7 µM
TGI (UACC-257 melanoma): 50.2 µM
GI50 (SNB-75 CNS): 11.2 µM
TGI (SNB-75 CNS): 44.8 µM
GI50 (SNB-19 CNS): 6.76 µM
TGI (SNB-19 CNS): 20.5 µM
GI50 (CAKI-1 renal): 21.1 µM
TGI (CAKI-1 renal): 64.1 µM
GI50 (OVCAR-4 ovarian): 7.68 µM
TGI (OVCAR-4 ovarian): 44.9 µM
GI50 (COLO 205 colon): 16.1 µM
TGI (COLO 205 colon): 33.9 µM
GI50 (ACHN renal): 11.4 µM
TGI (ACHN renal): 55.7 µM
GI50 (HOP-62 NSCLC): 12.3 µM
TGI (HOP-62 NSCLC): 30.4 µM
GI50 (OVCAR-3 ovarian): 13.7 µM
TGI (OVCAR-3 ovarian): 35.8 µM
GI50 (A498 renal): 20.7 µM
TGI (A498 renal): 52 µM
GI50 (RXF 393 renal): 13.9 µM
TGI (RXF 393 renal): 57.7 µM

Source: PubChem BioAssay (NCI)
